Measurements from PMC6993587, “Detection of EXP1-Specific CD4+ T Cell Responses Directed Against a Broad Range of Epitopes Including Two Promiscuous MHC Class II Binders During Acute Plasmodium falciparum Malaria” (Frontiers in Immunology, 2020).
Ends that are not written are not given here.

Tests used:
Assay in all cases: In vitro HLA binding assay with purified HLA-DR molecules
HLA-DR DRB1*09:01 = HLA-DR DRB1*09:01 (Homo sapiens, UniProt P01903+P01911, A100R/A103E/D57H/D86V/F55Y/F60I/F76Y/I96F/K127E/L162R/M171V/P40D/Q125H/Q99R/R33Q/R42F/S133A/S66N/T210M/V115G/W38K/Y107V/Y59G/Y89S)
HLA-DR DRB3*02:02 = HLA-DR DRB3*02:02 (Homo sapiens, UniProt P01903+P79483, A212P/D57E/F66Y/L67A/R103Q/R218S/R40L/S89Y/T80R/V86D/Y55F/Y59H); details: purified HLA-DR molecule; high affinity binding = IC50 <1,000 nM
Experimental: (§1) In vitro binding assays with 14 of the peptides that elicited a response were performed using purified HLA-DR molecules, as previously described (Table 3) ([37]). MHC class II in silico binding predictions were defined, using the IEDB analysis resource ([38]–[40]), combining predictions from the ANN ([41], [42]) and SMM ([43]) algorithms (Supplementary Table 2A).
(§2) To test this hypothesis, we measured the in vitro capacity of the most frequently recognized EXP1 peptides to bind to a panel of 17 of the most prevalent human HLA-DR molecules, since the majority of HLA class II restricted CD4+ T cell responses are presented by these molecules ([49], [50]). Peptides with an IC50 of 1,000 nM or lower, a threshold previously found associated with the vast majority of HLA class II-restricted T cell epitopes, were considered binders to the respective DR molecule ([51]–[53]). […] These include EXP1-P14 which bound to five, EXP1-P15 to 13, EXP1-P16 to 10 and EXP1-P17 to nine different HLA molecules (Table 3).

HLA-DR DRB1*04:05 = HLA-DR DRB1*04:05 (Homo sapiens, UniProt P01903+P01911, A100R/A169T/D86S/F76Y/I96L/K127E/L162R/M171V/N62H/P40V/Q125Y/R42H/S133A/S149N/S66Y/V115G/V209L/W38E); details: purified HLA-DR molecule; high affinity binding = IC50 <1,000 nM
Experimental: as §1, §2

HLA-DR DRB1*08:02 = HLA-DR DRB1*08:02 (Homo sapiens, UniProt P01903+P01911, A100R/A103L/A169T/F76Y/H45Y/I96F/K41T/L162R/M171V/P40S/Q125H/Q178H/Q39Y/Q99D/R218S/R42G/S66Y/V115G/W38E); details: purified HLA-DR molecule; high affinity binding = IC50 <1,000 nM
Experimental: as §1, §2

HLA-DR DRB1*11:01 = HLA-DR DRB1*11:01 (Homo sapiens, UniProt P01903+P01911, A100R/A169T/A87E/I96F/K41T/L162R/M171V/P40S/Q125H/Q178H/Q39Y/Q99D/R42S/S66Y/T262R/V115G/W38E); details: purified HLA-DR molecule; high affinity binding = IC50 <1,000 nM
Experimental: as §1, §2

HLA-DR DRB1*03:01 = HLA-DR DRB1*03:01 (Homo sapiens, UniProt P01903+P01911, A100K/A102G/A103R/A169T/F55Y/I96L/K41T/L162R/M171V/P40S/Q125H/Q178H/Q39Y/R42S/S66N/T106N/T262R/W38E/Y61H); details: purified HLA-DR molecule; high affinity binding = IC50 <1,000 nM
Experimental: as §1, §2

HLA-DR DRB1*15:01 = HLA-DR DRB1*15:01 (Homo sapiens, UniProt P01903+P01911); details: purified HLA-DR molecule; high affinity binding = IC50 <1,000 nM
Experimental: as §1, §2

HLA-DR DRB1*10:01 = HLA-DR DRB1*10:01 (Homo sapiens, UniProt P01903+P01911, A100R/A169T/D57E/F55L/F60V/F69Y/F76Y/I96L/L162R/M171V/P40V/Q260P/Q39E/Q99R/R195Q/R42F/S149N/S66Y/T210M/V115G/V67A/W38E/Y59R/Y61H); details: purified HLA-DR molecule; high affinity binding = IC50 <1,000 nM
Experimental: as §1, §2

HLA-DR DRB3*01:01 = HLA-DR DRB3*01:01 (Homo sapiens, UniProt P01903+P79483); details: purified HLA-DR molecule; high affinity binding = IC50 <1,000 nM
Experimental: as §1, §2

HLA-DR DRB1*01:01 = HLA-DR DRB1*01:01 (Homo sapiens, UniProt P01903+P01911, A100R/D57E/F55L/F60I/F76Y/I96L/L162R/M171V/P40L/Q125E/R42F/V115G/Y59C); details: purified HLA-DR molecule; high affinity binding = IC50 <1,000 nM
Experimental: as §1, §2

HLA-DR DRB1*13:01 = HLA-DR DRB1*13:01 (Homo sapiens, UniProt P01903+P01911, A100E/A169T/K41T/L162R/M171V/P40S/Q125H/Q178H/Q39Y/Q99D/R42S/S66N/T262R/W38E/Y61H); details: purified HLA-DR molecule; high affinity binding = IC50 <1,000 nM
Experimental: as §1, §2

HLA-DR DRB1*04:01 = HLA-DR DRB1*04:01 (Homo sapiens, UniProt P01903+P01911, A100K/A169T/F76Y/I96L/K127E/L162R/M171V/N62H/P40V/Q125Y/R42H/S133A/S149N/S66Y/V115G/V209L/W38E); details: purified HLA-DR molecule; high affinity binding = IC50 <1,000 nM
Experimental: as §1, §2

HLA-DR DRB1*07:01 = HLA-DR DRB1*07:01 (Homo sapiens, UniProt P01903+P01911, A100R/A102G/A103Q/D57E/D86V/E43K/F76Y/K127E/L162R/M171V/P40G/Q125H/Q99D/R33Q/R42Y/R54Q/S133A/S66F/T210M/V115G/Y107V/Y59L/Y89S); details: purified HLA-DR molecule; high affinity binding = IC50 <1,000 nM
Experimental: as §1, §2

HLA-DR DRB5*01:01 = HLA-DR DRB5*01:01 (Homo sapiens, UniProt P01903+Q30154); details: purified HLA-DR molecule; high affinity binding = IC50 <1,000 nM
Experimental: as §1, §2

HLA-DR DRB1*04:04 = HLA-DR DRB1*04:04 (Homo sapiens, UniProt P01903+P01911, A100R/A169T/F76Y/I96L/K127E/L162R/M171V/N62H/P40V/Q125Y/R42H/S133A/S149N/S66Y/V209L/W38E); details: purified HLA-DR molecule; high affinity binding = IC50 <1,000 nM
Experimental: as §1, §2

HLA-DR DRB4*01:01 = HLA-DR DRB4*01:01 (Homo sapiens, UniProt P01903+P13762, G164S); details: purified HLA-DR molecule; high affinity binding = IC50 <1,000 nM
Experimental: as §1, §2

HLA-DR DRB1*13:02 = HLA-DR DRB1*13:02 (Homo sapiens, UniProt P01903+P01911, A100E/A169T/K41T/L162R/M171V/P40S/Q125H/Q178H/Q39Y/Q99D/R42S/S66N/T262R/V115G/W38E/Y61H); details: purified HLA-DR molecule; high affinity binding = IC50 <1,000 nM
Experimental: as §1, §2

Sequence of HLA-DR DRB1*11:01 (P01903 26-254 limits assumed, other chains not shown): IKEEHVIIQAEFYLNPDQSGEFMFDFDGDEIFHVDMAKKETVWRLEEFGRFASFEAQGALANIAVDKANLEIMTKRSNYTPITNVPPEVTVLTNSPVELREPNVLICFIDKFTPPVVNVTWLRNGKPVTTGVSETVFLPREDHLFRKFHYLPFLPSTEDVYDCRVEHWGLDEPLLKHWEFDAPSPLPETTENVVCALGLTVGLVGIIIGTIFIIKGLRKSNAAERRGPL
Sequence of HLA-DR DRB3*02:02 (P01903 26-254 limits assumed): as the sequence (P01903 26-254 limits assumed, other chains not shown) above
Sequence of HLA-DR DRB3*02:02 (P79483 30-266 R40L/Y55F/D57E/Y59H/F66Y/L67A/T80R/V86D/S89Y/R103Q/A212P/R218S limits assumed): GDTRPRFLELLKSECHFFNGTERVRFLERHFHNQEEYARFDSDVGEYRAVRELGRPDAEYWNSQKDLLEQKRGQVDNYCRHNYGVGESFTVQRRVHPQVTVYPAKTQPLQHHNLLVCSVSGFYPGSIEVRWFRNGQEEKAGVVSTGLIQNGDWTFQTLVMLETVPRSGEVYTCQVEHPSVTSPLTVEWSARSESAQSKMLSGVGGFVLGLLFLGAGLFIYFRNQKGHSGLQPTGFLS
Sequence of HLA-DR DRB1*03:01 (P01903 26-254, other chains not shown): as the sequence (P01903 26-254 limits assumed, other chains not shown) above
Sequence of HLA-DR DRB1*13:02 (P01903 26-254 limits assumed, other chains not shown): as above

Compound | IC50 (HLA-DR DRB1*09:01) | IC50 (HLA-DR DRB3*02:02) | IC50 (HLA-DR DRB1*04:05) | IC50 (HLA-DR DRB1*08:02) | IC50 (HLA-DR DRB1*11:01) | IC50 (HLA-DR DRB1*03:01) | IC50 (HLA-DR DRB1*15:01) | IC50 (HLA-DR DRB1*10:01) | IC50 (HLA-DR DRB3*01:01) | IC50 (HLA-DR DRB1*01:01) | IC50 (HLA-DR DRB1*13:01) | IC50 (HLA-DR DRB1*04:01) | IC50 (HLA-DR DRB1*07:01) | IC50 (HLA-DR DRB5*01:01) | IC50 (HLA-DR DRB1*04:04) | IC50 (HLA-DR DRB4*01:01) | IC50 (HLA-DR DRB1*13:02)
KLATSVLAGLLGVVS [EXP1-P16] | 1.36 µM | 0.481 µM | 0.539 µM | 1.15 µM | 0.81 µM | 10.8 µM | 2.27 µM | 0.152 µM | 6.1 µM | 0.011 µM | 32.4 µM | 0.38 µM | 0.133 µM | 0.244 µM | 0.454 µM | 0.567 µM | 
CC[C@H](C)[C@H](NC(=O)[C@@H](NC(=O)[C@H](Cc1ccccc1)NC(=O)[C@H](Cc1ccccc1)NC(=O)[C@H](CC(C)C)NC(=O)[C@H](C)NC(=O)[C@H](CC(C)C)NC(=O)[C@H](Cc1ccccc1)NC(=O)[C@H](Cc1ccccc1)NC(=O)[C@@H](NC(=O)[C@H](CO)NC(=O)[C@H](CC(C)C)NC(=O)[C@@H](NC(=O)[C@H](CCCCN)NC(=O)[C@@H](N)CCSC)[C@@H](C)CC)C(C)C)[C@@H](C)CC)C(=O)O [EXP1-P01] | 3.59 µM |  | 3.52 µM | 5.45 µM | 39.6 µM |  | 3.36 µM | 4.94 µM |  | 21.4 µM | 3.12 µM | 5.05 µM | 9.19 µM | 10.9 µM | 9.13 µM | 25.2 µM | 
GSGVSSKKKNKKGSG [EXP1-P07] |  |  |  |  |  |  |  |  |  |  | 1.98 µM |  |  | 4.56 µM |  |  | 
RKSKYKLATSVLAGLL [EXP1-P15] | 0.0039 µM | 0.002 µM | 0.0074 µM | 11.9 µM | 0.007 µM | 5.82 µM | 0.195 µM | 0.0018 µM | 0.047 µM | 0.0011 µM |  | 0.0012 µM | 0.0014 µM | 0.001 µM | 0.048 µM | 0.23 µM | 39 µM
KEEELVEVNKRKSKY [EXP1-P13] |  |  |  |  | 0.142 µM |  |  |  |  |  | 1.19 µM |  |  | 1.12 µM |  | 17.9 µM | 
VEVNKRKSKYKLATS [EXP1-P14] | 0.077 µM | 5.84 µM | 0.083 µM |  |  |  | 6.1 µM | 0.295 µM | 13.9 µM | 2.35 µM | 5.74 µM | 0.058 µM | 8.3 µM | 0.089 µM |  |  | 
VLAGLLGVVSTVLLGGV [EXP1-P17] | 0.012 µM | 14.9 µM | 0.824 µM | 0.049 µM | 13.7 µM |  | 0.005 µM | 0.418 µM | 28.5 µM | 0.023 µM | 14.2 µM | 1.26 µM | 0.0046 µM | 0.238 µM | 0.047 µM | 2.39 µM | 33.4 µM
